Laboratory results reported in the supplement of paper PMC11781733.
Structures can show the parent of a compound that is named as a salt.

What was measured:
Conditions in all cases: exposure time: 15 min to 3 h acute
Dugesia japonica [1] = assay: crawl-out incidence (% planarians); higher = higher incidence or increase relative to vehicle control
Method: (§1)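 Adult asexual Dugesia japonica planarians (1 per well, 48-well plate, n=24 over technical triplicates) were exposed acutely (15 min to 3 h) to each compound (0.5% DMSO or water vehicle) and screened on a robotic platform for crawl-out, stickiness, body shape, phototaxis, noxious-heat scrunching and locomotion endpoints. Binary endpoints are incidence rate x100. Continuous endpoints are the median response normalised to the plate vehicle median, as % change or difference. Negative incidences after vehicle subtraction were set to 0.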

Dugesia japonica [2] = assay: speed in dark vs vehicle (% change vs vehicle); higher = higher incidence or increase relative to vehicle control
Method: as §1, with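 “x100 normalised to in-plate vehicle controls.” for “x100.”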

Dugesia japonica [3] = assay: C-shape incidence (% planarians (vehicle-normalised)); higher = higher incidence or increase relative to vehicle control
In short: (§2)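 Body shape incidence, for a given shape or for any abnormal shape, is reported ×100 and normalised to vehicle controls on the same plate, with negative values set to 0. D. japonica planarians fasted for 5–7 days were placed one per well in 200 μL in sealed 48-well plates and exposed to at least 5 concentrations. Within 15 minutes–3 hours of exposure, a researcher scored contraction, C-shape, corkscrew and hyperkinesis manually and blind, excluding worms that crawled out.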

Dugesia japonica [4] = assay: corkscrew incidence (% planarians (vehicle-normalised)); higher = higher incidence or increase relative to vehicle control
In short: as §2

Dugesia japonica [5] = assay: stickiness incidence (% planarians (vehicle-normalised)); higher = higher incidence or increase relative to vehicle control
In short: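 In the Stickiness assay, fasted Dugesia japonica planarians were each placed in one well of a sealed 48-well plate containing 200 μL of solution, with 0.5% DMSO or water as vehicle. Testing took place 15 min–3 h after exposure to half- or quarter-log concentration series. Stickiness was recorded as a binary endpoint, and its incidence was expressed relative to in-plate vehicle incidence after pooling technical triplicates and removing worms that crawled out. Negative values were set to 0 and all values were multiplied by 100.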

Dugesia japonica [6] = assay: hyperkinesis incidence (% planarians (vehicle-normalised)); higher = higher incidence or increase relative to vehicle control
In short: as §2

Dugesia japonica [7] = assay: speed first 30 s blue light vs vehicle (% change vs vehicle); higher = higher incidence or increase relative to vehicle control
In short: (§3)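 Crawling speed in the dark or during blue-light periods was measured by automated tracking of intact, fasted Dugesia japonica, one per well of a 48-well plate in 200 μL. Worms were tested 15 min to 3 h after exposure in 0.5% DMSO or water vehicle. Eight worms per concentration per plate were run in technical triplicate (n = 24). Each worm was normalised to the plate's vehicle median, and the value is the median percent change; worms that crawled out were excluded.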

Dugesia japonica [8] = assay: speed second 30 s blue light vs vehicle (% change vs vehicle); higher = higher incidence or increase relative to vehicle control
In short: as §3

Dugesia japonica [9] = assay: pharynx extrusion incidence (% planarians (vehicle-normalised)); higher = higher incidence or increase relative to vehicle control
In short: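 Fasted, intact Dugesia japonica were scored manually and blind for pharynx extrusion as a body-shape category, with the incidence normalised to in-plate vehicle controls. Testing took place 15 min to 3 h after exposure, one worm per well in 200 μL of 0.5% DMSO or water vehicle, with eight worms per concentration per plate in triplicate (n = 24). Worms that crawled out were excluded, and negative values were set to 0.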

Dugesia japonica [10] = assay: loss of phototaxis incidence (% planarians (vehicle-normalised)); higher = higher incidence or increase relative to vehicle control
In short: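 For each concentration, eight intact, fasted Dugesia japonica per plate were placed singly in wells of a 48-well plate in 200 μL and run in technical triplicate (n = 24). Testing took place 15 min to 3 h after exposure in 0.5% DMSO or water vehicle. Loss of phototaxis was recorded as present or absent by automated object tracking and expressed as an incidence rate normalised to in-plate vehicle controls. For this rate, ×100 was applied, negatives were set to 0, and worms that crawled out were excluded.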

Dugesia japonica [11] = assay: total locomotor bursts minus vehicle (bursts difference vs vehicle); higher = higher incidence or increase relative to vehicle control
In short: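 Fasted Dugesia japonica planarians, one per well of a sealed 48-well plate in 200 μL solution, were tested 15 min–3 h after exposure to half- or quarter-log concentration series. The vehicle was 0.5% DMSO or water. Total locomotor bursts, an unstimulated behaviour, came from image-based object tracking, with technical triplicates totalling n = 24. Each planarian's value had the plate vehicle-control median subtracted, without ×100 scaling. The value is the median normalised response, and crawled-out worms were excluded.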

Dugesia japonica [12] = assay: noxious heat displacement strength vs vehicle (% change vs vehicle); higher = higher incidence or increase relative to vehicle control
In short: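 Each intact, fasted Dugesia japonica was tested alone in a well of a 48-well plate in 200 μL, 15 min to 3 h after exposure in 0.5% DMSO or water vehicle. Eight worms per concentration per plate were used in technical triplicate (n = 24). Displacement strength under noxious heat came from the scrunching assay with automated object tracking and is given as the median percent change against the plate's vehicle median, excluding worms that crawled out.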

Dugesia japonica [13] = assay: contracted body shape incidence (% planarians (vehicle-normalised)); higher = higher incidence or increase relative to vehicle control
In short: as §2

Dugesia japonica [14] = assay: anxiety (time in outer well region) vs vehicle (% change vs vehicle); higher = higher incidence or increase relative to vehicle control
In short: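 Dugesia japonica planarians fasted for 5–7 days were placed one per well in 200 μL in sealed 48-well plates and exposed to at least 5 concentrations, with n = 24 per concentration in technical triplicates, then screened within 15 minutes–3 hours. Object tracking in MATLAB or Python measured the time each worm spent in the outer portion of the well, and worms that crawled out were excluded. Each response was divided by, or reduced by, the plate vehicle median and multiplied by 100. The reported value is the median of these normalized responses.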

Dugesia japonica [15] = assay: any abnormal body shape incidence (% planarians (vehicle-normalised)); higher = higher incidence or increase relative to vehicle control
In short: as §2

Dugesia japonica [16] = assay: resting fraction in dark vs vehicle (difference in fraction x100 vs vehicle); higher = higher incidence or increase relative to vehicle control
In short: (§4)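 In technical triplicate, eight intact, fasted Dugesia japonica per concentration per plate were tracked automatically to score the resting fraction in the dark or under blue light. Each worm had its own well of a 48-well plate containing 200 μL and was tested 15 min to 3 h after exposure in 0.5% DMSO or water vehicle. Reported values are medians of each worm's difference from the plate's vehicle median multiplied by 100, leaving out worms that crawled out.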

Dugesia japonica [17] = assay: loss of heat-induced scrunching incidence (% planarians (vehicle-normalised)); higher = higher incidence or increase relative to vehicle control
In short: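 Planarians of the species D. japonica, fasted for 5–7 days, were placed singly in wells of sealed 48-well plates in 200 μL and exposed to at least 5 concentrations, 24 worms per concentration in technical triplicates. Scrunching in response to a noxious heat stimulus was tested within 15 minutes–3 hours, and any worm that crawled out was excluded. The reported figure is the incidence of non-scrunching worms, normalised to vehicle controls on the same plate. This incidence is given ×100, with negatives set to 0.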

Dugesia japonica [18] = assay: resting fraction in blue light vs vehicle (difference in fraction x100 vs vehicle); higher = higher incidence or increase relative to vehicle control
In short: as §4

SMILES: CN1C(=O)CN=C(c2ccccc2)c2cc(Cl)ccc21 [diazepam] (1 µM)
- crawl-out incidence (Dugesia japonica [1]): 0
- speed in dark (Dugesia japonica [2]): 23.3
- C-shape incidence (Dugesia japonica [3]): 0
- corkscrew incidence (Dugesia japonica [4]): 0
- stickiness incidence (Dugesia japonica [5]): 4.17
- hyperkinesis incidence (Dugesia japonica [6]): 0
- speed first 30 s blue light (Dugesia japonica [7]): 30.1
- speed second 30 s blue light (Dugesia japonica [8]): -4.48
- pharynx extrusion incidence (Dugesia japonica [9]): 0
- loss of phototaxis incidence (Dugesia japonica [10]): 8.33
- total locomotor bursts minus vehicle (Dugesia japonica [11]): -4.5
- noxious heat displacement strength (Dugesia japonica [12]): -18.8
- contracted body shape incidence (Dugesia japonica [13]): 0
- anxiety (Dugesia japonica [14]): 2.23
- any abnormal body shape incidence (Dugesia japonica [15]): 0
- resting fraction in dark (Dugesia japonica [16]): -6.08
- loss of heat-induced scrunching incidence (Dugesia japonica [17]): 12.5
- resting fraction in blue light (Dugesia japonica [18]): -0.17

SMILES: O=C(CCCN1CC=C(n2c(=O)[nH]c3ccccc32)CC1)c1ccc(F)cc1 [droperidol] (1 µM)
- crawl-out incidence (Dugesia japonica [1]): 0
- speed in dark (Dugesia japonica [2]): -60.7
- C-shape incidence (Dugesia japonica [3]): 0
- corkscrew incidence (Dugesia japonica [4]): 4.17
- stickiness incidence (Dugesia japonica [5]): ≤ 0
- hyperkinesis incidence (Dugesia japonica [6]): 12.5
- speed first 30 s blue light (Dugesia japonica [7]): -63.6
- speed second 30 s blue light (Dugesia japonica [8]): -69.5
- pharynx extrusion incidence (Dugesia japonica [9]): 0
- loss of phototaxis incidence (Dugesia japonica [10]): 16.7
- total locomotor bursts minus vehicle (Dugesia japonica [11]): 11.8
- noxious heat displacement strength (Dugesia japonica [12]): -54.4
- contracted body shape incidence (Dugesia japonica [13]): 0
- anxiety (Dugesia japonica [14]): 11.5
- any abnormal body shape incidence (Dugesia japonica [15]): 16.7
- resting fraction in dark (Dugesia japonica [16]): 3.77
- loss of heat-induced scrunching incidence (Dugesia japonica [17]): 58.3
- resting fraction in blue light (Dugesia japonica [18]): 9.81

SMILES: CN(C)CCC[C@@]1(c2ccc(F)cc2)OCc2cc(C#N)ccc21 [escitalopram] (10 µM)
- crawl-out incidence (Dugesia japonica [1]): 0
- speed in dark (Dugesia japonica [2]): 22.6
- C-shape incidence (Dugesia japonica [3]): 0
- corkscrew incidence (Dugesia japonica [4]): 0
- stickiness incidence (Dugesia japonica [5]): 16.7
- hyperkinesis incidence (Dugesia japonica [6]): 0
- speed first 30 s blue light (Dugesia japonica [7]): 23.1
- speed second 30 s blue light (Dugesia japonica [8]): 16
- pharynx extrusion incidence (Dugesia japonica [9]): 0
- loss of phototaxis incidence (Dugesia japonica [10]): ≤ 0
- total locomotor bursts minus vehicle (Dugesia japonica [11]): 0.5
- noxious heat displacement strength (Dugesia japonica [12]): -2.51
- contracted body shape incidence (Dugesia japonica [13]): 0
- anxiety (Dugesia japonica [14]): 1.04
- any abnormal body shape incidence (Dugesia japonica [15]): 0
- resting fraction in dark (Dugesia japonica [16]): -4.34
- loss of heat-induced scrunching incidence (Dugesia japonica [17]): 8.33
- resting fraction in blue light (Dugesia japonica [18]): 0

SMILES: CN1CC(=O)N=C1NC(=O)Nc1cccc(Cl)c1 [fenobam] (56.2 µM)
- crawl-out incidence (Dugesia japonica [1]): 0
- speed in dark (Dugesia japonica [2]): -1.71
- C-shape incidence (Dugesia japonica [3]): 0
- corkscrew incidence (Dugesia japonica [4]): 0
- stickiness incidence (Dugesia japonica [5]): ≤ 0
- hyperkinesis incidence (Dugesia japonica [6]): 0
- speed first 30 s blue light (Dugesia japonica [7]): -6.17
- speed second 30 s blue light (Dugesia japonica [8]): -8.21
- pharynx extrusion incidence (Dugesia japonica [9]): 0
- loss of phototaxis incidence (Dugesia japonica [10]): 12.5
- total locomotor bursts minus vehicle (Dugesia japonica [11]): -0.5
- noxious heat displacement strength (Dugesia japonica [12]): -21.7
- contracted body shape incidence (Dugesia japonica [13]): 0
- anxiety (Dugesia japonica [14]): 9.05
- any abnormal body shape incidence (Dugesia japonica [15]): 0
- resting fraction in dark (Dugesia japonica [16]): -0.17
- loss of heat-induced scrunching incidence (Dugesia japonica [17]): ≤ 0
- resting fraction in blue light (Dugesia japonica [18]): 0

SMILES: CNCCC(Oc1ccc(C(F)(F)F)cc1)c1ccccc1 (stereo not drawn) [fluoxetine hydrochloride] (1 µM)
- crawl-out incidence (Dugesia japonica [1]): 0
- speed in dark (Dugesia japonica [2]): 33.6
- C-shape incidence (Dugesia japonica [3]): 0
- corkscrew incidence (Dugesia japonica [4]): 0
- stickiness incidence (Dugesia japonica [5]): 4.17
- hyperkinesis incidence (Dugesia japonica [6]): 0
- speed first 30 s blue light (Dugesia japonica [7]): 33.5
- speed second 30 s blue light (Dugesia japonica [8]): 14.9
- pharynx extrusion incidence (Dugesia japonica [9]): 0
- loss of phototaxis incidence (Dugesia japonica [10]): ≤ 0
- total locomotor bursts minus vehicle (Dugesia japonica [11]): -7
- noxious heat displacement strength (Dugesia japonica [12]): 12
- contracted body shape incidence (Dugesia japonica [13]): 0
- anxiety (Dugesia japonica [14]): 6.17
- any abnormal body shape incidence (Dugesia japonica [15]): 0
- resting fraction in dark (Dugesia japonica [16]): -9.67
- loss of heat-induced scrunching incidence (Dugesia japonica [17]): 8.33
- resting fraction in blue light (Dugesia japonica [18]): -1.64

SMILES: O=C(CCCN1CCC(O)(c2ccc(Cl)cc2)CC1)c1ccc(F)cc1 [haloperidol] (1 µM)
- crawl-out incidence (Dugesia japonica [1]): 4.17
- speed in dark (Dugesia japonica [2]): -17.7
- C-shape incidence (Dugesia japonica [3]): 0
- corkscrew incidence (Dugesia japonica [4]): 0
- stickiness incidence (Dugesia japonica [5]): ≤ 0
- hyperkinesis incidence (Dugesia japonica [6]): 0
- speed first 30 s blue light (Dugesia japonica [7]): -26.1
- speed second 30 s blue light (Dugesia japonica [8]): -36.1
- pharynx extrusion incidence (Dugesia japonica [9]): 0
- loss of phototaxis incidence (Dugesia japonica [10]): 21.7
- total locomotor bursts minus vehicle (Dugesia japonica [11]): 0
- noxious heat displacement strength (Dugesia japonica [12]): -20.5
- contracted body shape incidence (Dugesia japonica [13]): 4.35
- anxiety (Dugesia japonica [14]): 1.11
- any abnormal body shape incidence (Dugesia japonica [15]): 4.35
- resting fraction in dark (Dugesia japonica [16]): 32.1
- loss of heat-induced scrunching incidence (Dugesia japonica [17]): ≤ 0
- resting fraction in blue light (Dugesia japonica [18]): 10.1
